From publication PMC10227015, “From a drug repositioning to a structure-based drug design approach to tackle acute lymphoblastic leukemia” (Nature Communications, 2023) come the findings set out here.

SMILES strings stand for the structures. Values joined by “and” are separate entries in the source; they are usually repeats but may differ in a detail not shown here. Equal values may be shown once.

For one data set, the system named is Swiss male mice. In words: Acute in vivo toxicity, unique IP injection. As to conditions: mice, from 20 mg/kg/day.
A further data set relates to CCRF-CEM cells. The data set can be described thus: γH2A.X measurements (DNA damage). The data set is classed as cell-based, human. As to conditions: 24 h, dT 200 µM, others 1 µM, presence of dC. How it is done: CCRF-CEM cells were seeded at 100,000 cells/ml, and treated with DMSO (0.01%) as vehicle control or dT (200 μΜ), and/or dC, OR0642, DI-87 and DI-39 (1 μΜ). For cell cycle analysis, cells were harvested after 24 h, fixed in 4% paraformaldehyde, permeabilized with 0.15% Triton X100, and DNA content was determined using 1 μg/ml DAPI. For apoptosis assay, cells were harvested after 72 h and cell death was assayed using Annexin V-APC and 7AAD following manufacturer’s instructions (Biolegend, 640930). For γH2A.X measurements, cells were harvested after 24 h, fixed in 4% paraformaldehyde and permeabilized with 0.15% Triton X100. Then, cells were stained with the phospho-H2AX (pS139 H2AX, Biolegend, 613402, 1:1000) specific primary antibody, Alexa-Fluor 488 secondary antibody (ThermoFisher, A21202, 1:1000) and DAPI. All acquisitions were performed on a BD Fortessa cytometer, and analysis of flow cytometry data was performed using FlowJo™ Software 10.7.1 (BD Life Sciences). Each experiment was performed three times. Figures exemplifying the gating strategy are provided in the Supplementary Information (Supplementary Figs. 29–31).
Cells were seeded, treated and stained as described for flow cytometry analysis, and then spread on a microscope slide using cytospin. Slides were mounted with […] mounting medium with DAPI (Vector Laboratories). […]

The target in a further data set is T1, PLK1 (Homo sapiens, UniProt P53350).
T1 construct: purchased Eurofins DiscoverX (KINOMEscan scanEDGE 97)
The data set can be described thus: KINOMEscan competition binding. As to conditions: OR0642 1 µM; read-out: %Control. How it is done:
(§1) Kinome profiling was provided by Eurofins DiscoverX Corporation. Determination of the % control activity for 97 kinases was obtained through an active site-directed competition binding assay that quantitatively measure interactions between compound and kinases. OR0642 was used at 1 μM.
(§2) Supplementary Table 3. KINOMEscan™ Profiling of OR0642. Competition binding assay to quantitatively measure interactions between OR0642 (1 µM) and 97 human kinases and disease relevant mutant variants.
(§3) Target Gene Symbol %Control Target Gene Symbol %Control […]

The next data set addresses T2, RET (Homo sapiens, UniProt P07949).
T2 construct: purchased Eurofins DiscoverX (KINOMEscan scanEDGE 97)
In words: KINOMEscan competition binding. As to conditions: OR0642 1 µM; read-out: %Control. The procedure:
as §1, §2, §3

The target of another data set is T3, PLK3 (Homo sapiens, UniProt Q9H4B4).
T3 construct: purchased Eurofins DiscoverX (KINOMEscan scanEDGE 97)
The data set can be described thus: KINOMEscan competition binding. The note with it: OR0642 1 µM; read-out: %Control. How it is done:
as §1, §2, §3

A further data set concerns the target T4, PKAC-alpha (Homo sapiens, UniProt P17612).
T4 construct: purchased Eurofins DiscoverX (KINOMEscan scanEDGE 97)
The data set can be described thus: KINOMEscan competition binding. The note with it: OR0642 1 µM; read-out: %Control. How it is done: as §1, §2, §3

For another data set, the target named is T5, PLK4 (Homo sapiens, UniProt O00444).
T5 construct: purchased Eurofins DiscoverX (KINOMEscan scanEDGE 97)
The data set can be described thus: KINOMEscan competition binding. As to conditions: OR0642 1 µM; read-out: %Control. The procedure: as §1, §2, §3

The target of data set [1] is T6, JAK2(JH1domain-catalytic) (Homo sapiens, UniProt O60674).
T6 construct: JAK2(JH1domain-catalytic); purchased Eurofins DiscoverX (KINOMEscan scanEDGE 97)
In words: KINOMEscan competition binding. As to conditions: OR0642 1 µM; read-out: %Control. How it is done:
as §1, §2, §3

Data set [2] addresses T7, TYK2(JH1domain-catalytic) (Homo sapiens, UniProt P29597).
T7 construct: TYK2(JH1domain-catalytic); purchased Eurofins DiscoverX (KINOMEscan scanEDGE 97)
The data set can be described thus: KINOMEscan competition binding. As to conditions: OR0642 1 µM; read-out: %Control. How it is done: as §1, §2, §3

In the next data set the target is T8, MAPKAPK2 (Homo sapiens, UniProt P49137).
T8 construct: purchased Eurofins DiscoverX (KINOMEscan scanEDGE 97)
In words: KINOMEscan competition binding. The note with it: OR0642 1 µM; read-out: %Control. The procedure: as §1, §2, §3

The target of data set [3] is T9, RSK2(Kin.Dom.1-N-terminal) (Homo sapiens, UniProt P51812).
T9 construct: RSK2(Kin.Dom.1-N-terminal); purchased Eurofins DiscoverX (KINOMEscan scanEDGE 97)
In words: KINOMEscan competition binding. As to conditions: OR0642 1 µM; read-out: %Control. How it is done: as §1, §2, §3

The target in another data set is T10, ZAP70 (Homo sapiens, UniProt P43403).
T10 construct: purchased Eurofins DiscoverX (KINOMEscan scanEDGE 97)
In words: KINOMEscan competition binding. As to conditions: OR0642 1 µM; read-out: %Control. The procedure:
as §1, §2, §3

For the next data set, the target named is T11, p38-beta (Homo sapiens, UniProt Q15759).
T11 construct: purchased Eurofins DiscoverX (KINOMEscan scanEDGE 97)
The data set can be described thus: KINOMEscan competition binding. The note with it: OR0642 1 µM; read-out: %Control. The procedure:
as §1, §2, §3

In the next data set the target is T12, ABL1-nonphosphorylated (Homo sapiens, UniProt P00519).
T12 construct: purchased Eurofins DiscoverX (KINOMEscan scanEDGE 97)
The data set can be described thus: KINOMEscan competition binding. As to conditions: OR0642 1 µM; read-out: %Control. How it is done: as §1, §2, §3

The target of the next data set is T13, PIM2 (Homo sapiens, UniProt Q9P1W9).
T13 construct: purchased Eurofins DiscoverX (KINOMEscan scanEDGE 97)
In words: KINOMEscan competition binding. The note with it: OR0642 1 µM; read-out: %Control. The procedure: as §1, §2, §3

In a further data set the target is T14, ULK2 (Homo sapiens, UniProt Q8IYT8).
T14 construct: purchased Eurofins DiscoverX (KINOMEscan scanEDGE 97)
In words: KINOMEscan competition binding. As to conditions: OR0642 1 µM; read-out: %Control. How it is done: as §1, §2, §3

Another data set deals with T15, p38-alpha (Homo sapiens, UniProt Q16539).
T15 construct: purchased Eurofins DiscoverX (KINOMEscan scanEDGE 97)
In words: KINOMEscan competition binding. As to conditions: OR0642 1 µM; read-out: %Control. How it is done: as §1, §2, §3

The target of another data set is T16, VEGFR2 (Homo sapiens, UniProt P35968).
T16 construct: purchased Eurofins DiscoverX (KINOMEscan scanEDGE 97)
In words: KINOMEscan competition binding. As to conditions: OR0642 1 µM; read-out: %Control. How it is done:
as §1, §2, §3

For data set [4], the system named is human CCRF-CEM T-ALL cell line expressing luciferase. In words: Systemic leukemia model: NSG mice inoculated intravenously with luciferase CCRF-CEM cells.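 For hCD45+ populations determined by flux cytometry at day 21 of CCRF-CEM bearing mice: Bead-counted human ALL blasts per volume of peripheral blood.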 The data set is classed as in vivo, mouse. Set-up: hCD45+ populations determined by flux cytometry at day 21 of CCRF-CEM bearing mice / Whole body radiance of CCRF-CEM bearing mice: unit not given here. As to conditions: for effect on leukemic progression: dT 1.5 g/kg, OR0642 40 mg/kg IP; for Whole body radiance of CCRF-CEM bearing mice / hCD45+ populations determined by flux cytometry at day 21 of CCRF-CEM bearing mice / Whole body radiance at day 21 of CCRF-CEM bearing mice / Survival days of CCRF-CEM bearing mice: dT 1,5 g/Kg, OR0642 40 mg/Kg; for hCD45+ populations determined by flux cytometry at day 21 of CCRF-CEM bearing mice: day 21, blood; for Whole body radiance at day 21 of CCRF-CEM bearing mice: day 21, individual mice (Figure 4d).

T16 sequence (P35968 20-1356): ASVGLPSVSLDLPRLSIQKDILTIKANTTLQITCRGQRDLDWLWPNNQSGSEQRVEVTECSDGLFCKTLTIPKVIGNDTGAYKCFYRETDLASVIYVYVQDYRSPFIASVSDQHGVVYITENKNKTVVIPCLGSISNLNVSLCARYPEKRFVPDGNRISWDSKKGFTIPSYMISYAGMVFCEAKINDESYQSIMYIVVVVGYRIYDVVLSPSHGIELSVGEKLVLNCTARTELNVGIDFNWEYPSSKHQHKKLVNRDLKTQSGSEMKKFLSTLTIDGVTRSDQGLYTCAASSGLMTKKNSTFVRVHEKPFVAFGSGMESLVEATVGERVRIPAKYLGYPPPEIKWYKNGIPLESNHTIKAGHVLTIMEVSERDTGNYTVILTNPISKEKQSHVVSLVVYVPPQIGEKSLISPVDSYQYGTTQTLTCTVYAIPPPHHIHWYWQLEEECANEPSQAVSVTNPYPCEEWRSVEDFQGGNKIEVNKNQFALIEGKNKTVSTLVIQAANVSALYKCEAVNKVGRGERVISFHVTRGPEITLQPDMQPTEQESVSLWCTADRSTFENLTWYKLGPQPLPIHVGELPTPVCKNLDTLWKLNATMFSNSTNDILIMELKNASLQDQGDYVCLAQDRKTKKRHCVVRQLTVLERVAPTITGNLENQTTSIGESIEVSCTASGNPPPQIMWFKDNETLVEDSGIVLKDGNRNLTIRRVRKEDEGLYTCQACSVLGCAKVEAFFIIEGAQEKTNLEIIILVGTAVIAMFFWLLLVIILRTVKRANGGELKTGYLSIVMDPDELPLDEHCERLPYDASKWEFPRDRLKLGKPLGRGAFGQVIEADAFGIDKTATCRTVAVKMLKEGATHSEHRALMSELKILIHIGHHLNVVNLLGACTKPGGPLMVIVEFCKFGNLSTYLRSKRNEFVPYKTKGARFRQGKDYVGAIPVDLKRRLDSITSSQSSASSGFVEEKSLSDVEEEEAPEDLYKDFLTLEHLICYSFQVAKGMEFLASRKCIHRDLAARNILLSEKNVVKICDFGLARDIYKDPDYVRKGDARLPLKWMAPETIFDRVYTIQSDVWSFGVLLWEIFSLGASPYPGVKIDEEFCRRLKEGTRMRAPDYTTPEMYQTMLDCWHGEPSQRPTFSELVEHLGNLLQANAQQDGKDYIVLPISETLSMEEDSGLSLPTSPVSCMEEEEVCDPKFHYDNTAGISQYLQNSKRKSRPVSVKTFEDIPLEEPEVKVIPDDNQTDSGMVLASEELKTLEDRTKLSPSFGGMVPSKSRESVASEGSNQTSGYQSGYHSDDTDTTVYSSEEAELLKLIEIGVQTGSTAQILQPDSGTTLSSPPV
T1 sequence (P53350 whole entry): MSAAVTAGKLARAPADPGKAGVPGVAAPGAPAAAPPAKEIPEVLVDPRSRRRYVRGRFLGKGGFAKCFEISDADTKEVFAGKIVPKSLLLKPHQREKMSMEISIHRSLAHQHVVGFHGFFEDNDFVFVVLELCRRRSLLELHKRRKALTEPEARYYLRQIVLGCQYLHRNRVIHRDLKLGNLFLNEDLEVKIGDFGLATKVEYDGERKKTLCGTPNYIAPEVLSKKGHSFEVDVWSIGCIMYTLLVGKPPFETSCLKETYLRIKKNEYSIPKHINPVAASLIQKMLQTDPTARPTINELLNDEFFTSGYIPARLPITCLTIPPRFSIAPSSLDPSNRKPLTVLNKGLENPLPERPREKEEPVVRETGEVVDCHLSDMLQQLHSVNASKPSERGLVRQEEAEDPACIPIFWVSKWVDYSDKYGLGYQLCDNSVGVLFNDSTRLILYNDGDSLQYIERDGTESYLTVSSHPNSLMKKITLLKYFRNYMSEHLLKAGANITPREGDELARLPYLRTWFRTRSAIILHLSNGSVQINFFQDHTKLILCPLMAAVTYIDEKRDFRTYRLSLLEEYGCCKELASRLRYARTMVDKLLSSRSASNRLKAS
T9 sequence (P51812 1-397 limits assumed): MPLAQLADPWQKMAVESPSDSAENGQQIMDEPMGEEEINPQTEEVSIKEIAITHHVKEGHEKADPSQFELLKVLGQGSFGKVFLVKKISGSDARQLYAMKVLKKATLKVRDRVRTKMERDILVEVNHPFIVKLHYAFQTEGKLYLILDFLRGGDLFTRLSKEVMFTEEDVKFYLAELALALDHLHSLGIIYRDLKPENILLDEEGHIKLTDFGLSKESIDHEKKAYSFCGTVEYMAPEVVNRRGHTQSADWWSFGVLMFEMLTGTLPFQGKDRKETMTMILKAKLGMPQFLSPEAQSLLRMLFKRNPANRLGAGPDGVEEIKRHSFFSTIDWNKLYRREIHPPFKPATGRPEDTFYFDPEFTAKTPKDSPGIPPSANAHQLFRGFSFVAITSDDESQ
T14 sequence (Q8IYT8 whole entry): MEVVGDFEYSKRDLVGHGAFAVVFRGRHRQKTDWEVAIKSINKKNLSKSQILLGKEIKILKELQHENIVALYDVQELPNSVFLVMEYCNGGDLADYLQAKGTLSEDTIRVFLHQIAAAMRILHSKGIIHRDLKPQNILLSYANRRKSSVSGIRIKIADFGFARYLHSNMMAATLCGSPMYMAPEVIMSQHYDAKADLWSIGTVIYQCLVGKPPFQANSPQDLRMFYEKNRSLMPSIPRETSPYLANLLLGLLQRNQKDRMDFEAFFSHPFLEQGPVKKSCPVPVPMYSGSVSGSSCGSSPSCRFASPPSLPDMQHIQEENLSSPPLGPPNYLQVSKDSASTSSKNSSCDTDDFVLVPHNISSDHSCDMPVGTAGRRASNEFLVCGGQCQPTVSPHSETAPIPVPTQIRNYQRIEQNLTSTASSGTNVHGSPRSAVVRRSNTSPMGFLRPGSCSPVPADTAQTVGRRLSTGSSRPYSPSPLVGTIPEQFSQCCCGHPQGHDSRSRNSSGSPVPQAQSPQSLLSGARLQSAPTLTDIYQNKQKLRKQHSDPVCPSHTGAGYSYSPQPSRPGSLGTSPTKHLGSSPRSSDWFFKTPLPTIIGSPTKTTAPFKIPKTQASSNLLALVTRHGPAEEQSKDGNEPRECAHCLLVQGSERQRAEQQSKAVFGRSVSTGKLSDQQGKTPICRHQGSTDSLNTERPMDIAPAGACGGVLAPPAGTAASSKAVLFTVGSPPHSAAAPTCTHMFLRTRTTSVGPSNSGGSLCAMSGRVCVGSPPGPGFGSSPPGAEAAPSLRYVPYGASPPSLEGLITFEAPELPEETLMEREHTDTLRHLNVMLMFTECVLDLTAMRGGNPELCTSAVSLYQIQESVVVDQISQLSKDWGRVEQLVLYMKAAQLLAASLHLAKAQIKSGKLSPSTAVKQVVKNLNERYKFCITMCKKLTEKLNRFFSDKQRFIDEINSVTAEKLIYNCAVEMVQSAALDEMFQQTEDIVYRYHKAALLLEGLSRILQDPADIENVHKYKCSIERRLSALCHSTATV
T5 sequence (O00444 whole entry): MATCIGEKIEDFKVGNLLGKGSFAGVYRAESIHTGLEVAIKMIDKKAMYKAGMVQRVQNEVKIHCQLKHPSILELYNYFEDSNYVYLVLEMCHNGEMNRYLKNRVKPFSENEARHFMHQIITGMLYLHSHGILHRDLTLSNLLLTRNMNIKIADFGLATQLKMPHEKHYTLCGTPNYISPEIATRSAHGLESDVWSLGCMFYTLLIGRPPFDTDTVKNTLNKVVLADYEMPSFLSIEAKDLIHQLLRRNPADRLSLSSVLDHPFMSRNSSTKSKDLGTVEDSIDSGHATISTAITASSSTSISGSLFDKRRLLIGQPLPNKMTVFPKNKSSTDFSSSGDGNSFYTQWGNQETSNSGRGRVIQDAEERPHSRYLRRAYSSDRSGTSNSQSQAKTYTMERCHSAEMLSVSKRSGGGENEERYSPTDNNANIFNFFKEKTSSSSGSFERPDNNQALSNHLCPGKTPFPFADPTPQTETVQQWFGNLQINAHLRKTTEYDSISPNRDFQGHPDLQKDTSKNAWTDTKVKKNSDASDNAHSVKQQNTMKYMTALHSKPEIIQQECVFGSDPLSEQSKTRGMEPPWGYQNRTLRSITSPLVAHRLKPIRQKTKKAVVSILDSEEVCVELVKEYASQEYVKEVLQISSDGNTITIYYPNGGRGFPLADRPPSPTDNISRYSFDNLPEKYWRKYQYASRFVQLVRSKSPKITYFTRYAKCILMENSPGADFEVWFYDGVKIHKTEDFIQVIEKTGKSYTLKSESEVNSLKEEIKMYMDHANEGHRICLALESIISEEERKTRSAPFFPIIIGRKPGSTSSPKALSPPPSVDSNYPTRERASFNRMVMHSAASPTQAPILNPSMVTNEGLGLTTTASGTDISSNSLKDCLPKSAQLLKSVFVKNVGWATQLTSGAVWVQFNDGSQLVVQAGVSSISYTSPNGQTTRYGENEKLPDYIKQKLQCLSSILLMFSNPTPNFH
T8 sequence (P49137 whole entry): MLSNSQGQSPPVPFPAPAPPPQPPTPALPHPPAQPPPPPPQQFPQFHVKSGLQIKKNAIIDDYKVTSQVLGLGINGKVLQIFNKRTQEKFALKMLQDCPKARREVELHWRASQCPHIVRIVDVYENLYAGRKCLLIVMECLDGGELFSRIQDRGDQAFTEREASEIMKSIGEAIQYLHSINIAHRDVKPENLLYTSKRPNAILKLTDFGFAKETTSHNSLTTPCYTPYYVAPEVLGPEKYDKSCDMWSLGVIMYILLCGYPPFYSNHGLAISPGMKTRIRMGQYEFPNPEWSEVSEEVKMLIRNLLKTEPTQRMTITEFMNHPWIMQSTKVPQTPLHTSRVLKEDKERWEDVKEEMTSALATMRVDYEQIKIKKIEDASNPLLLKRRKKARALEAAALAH
T6 sequence (O60674 840-1132 limits assumed): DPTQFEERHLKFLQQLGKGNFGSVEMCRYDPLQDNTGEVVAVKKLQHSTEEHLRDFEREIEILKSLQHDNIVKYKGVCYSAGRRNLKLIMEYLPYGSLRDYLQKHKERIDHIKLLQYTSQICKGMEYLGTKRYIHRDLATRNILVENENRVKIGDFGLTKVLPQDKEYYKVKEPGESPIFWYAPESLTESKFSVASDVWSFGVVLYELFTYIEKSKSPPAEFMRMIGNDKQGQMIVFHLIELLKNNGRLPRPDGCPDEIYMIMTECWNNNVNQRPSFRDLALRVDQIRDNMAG

`CCCN(c1nc(-c2nc(N)cc(N)n2)cs1)c1cc(-c2ccc(CCN3CCN(C)CC3)nc2)ccc1C` [OR0602]: the in vivo tolerance entry in the data set on Swiss male mice is reported as “unacceptable side effects”.

For the compound `CCCN(c1nc(-c2nc(N)cc(N)n2)cs1)c1cc(-c2ccc(S(=O)(=O)N3CCN(C)CC3)cc2C(F)(F)F)ccc1C` [OR0642], the “DNA damage, γH2A.X” value in the data set on CCRF-CEM cells is listed as “neither dT nor OR0642 alone induced DNA damage or apoptosis”. In addition, the remaining binding at 1 µM amounted to 90% at PLK1; 100% at RET; 100% on PLK3; 85% at PKAC-alpha; 81% at PLK4; 100% in data set [1]. For the same compound, the remaining binding at 1 µM in data set [2] was 100%; on MAPKAPK2, 100%; in data set [3], 100%; at ZAP70 it was 97%; at p38-beta it was 91%; on ABL1-nonphosphorylated, 94%. Moreover, the remaining binding at 1 µM on PIM2 amounted to 100%; on ULK2, 95%; on p38-alpha it was 100%; on VEGFR2, 100%. Further, the “effect on leukemic progression” value in data set [4] was “did not show any antiproliferative effect”. Besides, the “Whole body radiance of CCRF-CEM bearing mice” value in data set [4] (day 0 (before treatment), individual mice, 40 mg/kg) was 1948 and 1585 and 1112 and 1289 and 1143 and 2120 and 1563 and 1766 and 1453; in data set [4] (day 7, individual mice, 40 mg/kg), 5130 and 1470 and 1540 and 826 and 1990 and 2090 and 4750 and 1530 and 2610; in [4] (day 14, individual mice, 40 mg/kg), 392000 and 24500 and 395000 and 489000 and 137000 and 327000 and 469000 and 291000 and 53900; in data set [4] (day 21, individual mice (Figure 4b), 40 mg/kg) it was 2070000 and 4600000 and 1490000 and 6950000 and 1760000 and 5460000 and 5470000 and 5010000 and 3010000. The “hCD45+ populations determined by flux cytometry at day 21 of CCRF-CEM bearing mice” value in data set [4] (individual mice, 40 mg/kg) is 216.1 and 194.2 and 86.4 and 80.1 and 74.9 and 211.8 and 120.7 and 113.3 and 112.2. The “Whole body radiance at day 21 of CCRF-CEM bearing mice” value in data set [4] (40 mg/kg) was 2180000 and 4850000 and 1550000 and 7340000 and 1840000 and 5680000 and 5590000 and 4590000 and 3150000. In addition, the “Survival days of CCRF-CEM bearing mice” value in data set [4] (individual mice, 40 mg/kg) was 25 days and 26 days and 27 days.

For `Cc1cn([C@H]2C[C@H](O)[C@@H](CO)O2)c(=O)[nH]c1=O` [dT, thymidine], in the data set with CCRF-CEM cells, the “DNA damage, γH2A.X” value is on record as “neither dT nor OR0642 alone induced DNA damage or apoptosis”. The “effect on leukemic progression” value in data set [4] was “scarcely reduced leukemic progression”. Also, the “Whole body radiance of CCRF-CEM bearing mice” value is 2430 and 1179 and 1269 and 2044 and 1251 and 1181 and 1090 in [4] (day 0 (before treatment), individual mice); 1580 and 1140 and 2350 and 2150 and 1440 and 1960 and 2210 in data set [4] (day 7, individual mice); 94100 and 37700 and 196000 and 167000 and 8080 and 182000 and 106000 in [4] (day 14, individual mice); 1150000 and 1620000 and 2390000 and 1910000 and 1880000 and 520000 and 953000 in data set [4] (day 21, individual mice (Figure 4b)). Besides, the “hCD45+ populations determined by flux cytometry at day 21 of CCRF-CEM bearing mice” value in data set [4] (individual mice) was 24.2 and 22.7 and 31.6 and 8.9 and 23.4 and 14.2. Moreover, the “Whole body radiance at day 21 of CCRF-CEM bearing mice” value in [4] was 1720000 and 2530000 and 2010000 and 1980000 and 545000 and 1000000 and 1210000. The “Survival days of CCRF-CEM bearing mice” value in [4] (individual mice) was 28 days and 29 days and 30 days.
